Laboratory results from patent US9404081B2, “Pyruvate kinase activators for use in therapy” (AGIOS PHARMACEUTICALS, INC., priority 2011, dated 2016).

Tests used:
Type in all cases: biochemical
PKR T384W = PKR T384W (Homo sapiens, UniProt P30613, T384W); assay: PKR T384W Single Point Percent Activation Assay; conditions: read-out: Act. % 384W
Procedure: PKR T384W Single Point Percent Activation Assay
(§1) A compound described herein was diluted with DMSO and tested at 1 μM concentration. The enzyme was diluted in 1× Buffer: (100 mM KCl, 50 mM Tris 7.5, 5 mM MgCl2, 1 mM DTT, 0.03% BSA). 2 μL of compound solution was first added into wells, and then 180 μL enzyme solution was added. Assays were assembled except for ADP, and plates were stored for 60 minutes at RT. 20 μL ADP was added to start the assay and assay output was evaluated using OD340 at SpectraMax. The assay was run at room temperature.
Final concentration: PKR T384W soluble (300 ng/well), Tris pH 7.5 (50 mM), KCl (100 mM), MgCl2 (5 mM), ADP (0.08 mM), PEP (0.23 mM), NADH (180 μM), LDH (0.5 units, Sigma 59023), DTT (1 mM) and BSA (0.03%).

PKR wt = PKR wt (Homo sapiens, UniProt P30613); assay: PKR WT Single Point Percent Activation Assay
Sequence of PKR wt (P30613 whole entry): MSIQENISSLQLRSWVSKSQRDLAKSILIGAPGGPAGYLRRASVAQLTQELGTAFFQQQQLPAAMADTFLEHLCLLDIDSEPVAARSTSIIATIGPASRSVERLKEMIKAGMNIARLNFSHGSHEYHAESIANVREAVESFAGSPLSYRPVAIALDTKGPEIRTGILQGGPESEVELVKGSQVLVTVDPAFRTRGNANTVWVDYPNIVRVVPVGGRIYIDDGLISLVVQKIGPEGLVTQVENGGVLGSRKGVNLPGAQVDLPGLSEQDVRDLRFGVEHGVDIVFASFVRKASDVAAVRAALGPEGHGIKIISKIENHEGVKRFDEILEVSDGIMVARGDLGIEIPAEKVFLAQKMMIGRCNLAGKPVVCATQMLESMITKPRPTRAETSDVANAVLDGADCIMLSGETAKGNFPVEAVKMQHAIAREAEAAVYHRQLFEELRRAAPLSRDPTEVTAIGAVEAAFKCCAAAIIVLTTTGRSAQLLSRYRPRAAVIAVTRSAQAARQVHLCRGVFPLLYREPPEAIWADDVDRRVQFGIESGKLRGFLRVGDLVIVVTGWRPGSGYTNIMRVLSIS
Procedure: PKR WT Single Point Percent Activation Assay
as §1, with “180 μL of enzyme solution” for “180 μL enzyme solution”
Final concentration: PKR wt (100 ng/well), Tris pH 7.5 (50 mM), KCl (100 mM), MgCl2 (5 mM), ADP (0.48 mM), PEP (0.15 mM), NADH (180 μM), LDH (0.5 units, Sigma 59023), DTT (1 mM) and BSA (0.03%).

PKR R510Q = PKR R510Q (Homo sapiens, UniProt P30613, R510Q); assay: PKR R510Q Single Point Percent Activation Assay; conditions: read-out: Act. % 510Q
Sequence of PKR R510Q (P30613 whole entry R510Q): as the sequence (P30613 whole entry) above, with R510Q counted along it
Procedure: PKR R510Q Single Point Percent Activation Assay
as §1, with “180 μL of enzyme solution” for “180 μL enzyme solution”
Final concentration: PKR R510Q (40 ng/well), Tris pH 7.5 (50 mM), KCl (100 mM), MgCl2 (5 mM), ADP (0.2 mM), PEP (0.11 mM), NADH (180 μM), LDH (0.5 units, Sigma 59023), DTT (1 mM) and BSA (0.03%).

PKR R532W = PKR R532W (Homo sapiens, UniProt P30613, R532W); assay: PKR R532W Single Point Percent Activation Assay; conditions: for activation at 1 µM: read-out: Act, % 532W
Sequence of PKR R532W (P30613 whole entry R532W): as the sequence (P30613 whole entry) above, with R532W counted along it
Procedure: PKR R532W Single Point Percent Activation Assay
as §1, with “180 μL of enzyme solution” for “180 μL enzyme solution”
Final concentration: PKR R532W (100 ng/well), Tris pH 7.5 (50 mM), KCl (100 mM), MgCl2 (5 mM), ADP (0.36 mM), PEP (0.1 mM), NADH (180 μM), LDH (0.5 units, Sigma 59023), DTT (1 mM) and BSA (0.03%).

Sequence of PKR T384W (P30613 whole entry T384W): as the sequence (P30613 whole entry) above, with T384W counted along it

SMILES | activation at 1 µM (PKR T384W) | activation at 1 µM (PKR wt) | activation at 1 µM (PKR R510Q) | activation at 1 µM (PKR R532W) | Act, % 532W (PKR R532W; % activation at 1 μM)
C[C@H]1CN(C(=O)O[C@@H]2CCOC2)CCN1C(=O)c1ccc(NS(=O)(=O)c2cccc3cccnc23)cc1 | 101 to 500% | 101 to 500% | 1 to 100% | 101 to 500% | 
CC(C)OC(=O)N1CCN(C(=O)c2ccc(NS(=O)(=O)c3cccc4cccnc34)cc2)c2ccccc21 | 1 to 100% | 1 to 100% | 1 to 100% | 1 to 100% | 
O=C(c1ccc(NS(=O)(=O)c2cccc3cccnc23)cc1)N1CC2CCC(C1)N2CC1CC1 | 101 to 500% | 1 to 100% | 101 to 500% | 101 to 500% | 
C[C@H]1CN(CC2CCCCC2)CCN1C(=O)c1ccc(NS(=O)(=O)c2cccc3cccnc23)cc1 | 1 to 100% | 1 to 100% | 1 to 100% | 101 to 500% | 
C[C@@H]1CN(C(=O)c2ccc(NS(=O)(=O)c3cccc4cccnc34)cc2)C[C@H](C)N1C(=O)c1ccccn1 | 101 to 500% | 101 to 500% | 101 to 500% | 101 to 500% | 
CC(C)COC(=O)N1[C@H](C)CN(C(=O)c2ccc(NS(=O)(=O)c3cccc4cccnc34)cc2)C[C@@H]1C | 101 to 500% | 101 to 500% | 101 to 500% | 1 to 100% | 
CC1CN(Cc2cc(F)c(F)cc2F)CC(C)N1C(=O)c1ccc(NS(=O)(=O)c2cccc3cccnc23)cc1 (centres unmarked) | 1 to 100% | 101 to 500% | 101 to 500% | 1 to 100% | 
O=C(c1ccc(NS(=O)(=O)c2cccc3cccnc23)cc1)N1CCN(Cc2cc(F)cc(F)c2)C[C@@H]1c1ccccc1 | 1 to 100% | 1 to 100% | 101 to 500% | 1 to 100% | 
C[C@@H]1CN(CC2CCOC2)CCN1C(=O)c1ccc(NS(=O)(=O)c2cccc3cccnc23)cc1 (some centres unmarked) | 101 to 500% | 101 to 500% | 101 to 500% | 101 to 500% | 
C[C@@H]1CN(C[C@@H]2CCCO2)CCN1C(=O)c1ccc(NS(=O)(=O)c2cccc3cccnc23)cc1 | 101 to 500% | 101 to 500% | 101 to 500% | 101 to 500% | 
C[C@@H]1CN(C(=O)OCCC2CCCC2)CCN1C(=O)c1ccc(NS(=O)(=O)c2cccc3cccnc23)cc1 | 1 to 100% | 1 to 100% | 1 to 100% | 1 to 100% | 
C[C@H]1CN(Cc2cc(F)cc(F)c2)CCN1C(=O)c1ccc(NS(=O)(=O)c2cccc3cccnc23)cc1Cl | 1 to 100% | 1 to 100% | 101 to 500% | 101 to 500% | 
O=C(c1ccc(NS(=O)(=O)c2cccc3cccnc23)cc1)N1CC2CCC(C1)N2Cc1ccc(F)cc1 | 1 to 100% | 101 to 500% | 101 to 500% | 1 to 100% | 
C[C@@H]1CN(C(=O)c2ccccn2)C[C@H](C)N1C(=O)c1ccc(NS(=O)(=O)c2cccc3cccnc23)cc1 | 1 to 100% | 101 to 500% | 1 to 100% | 1 to 100% | 
C[C@@H]1CN(CC2CCCCC2)CCN1C(=O)c1ccc(NS(=O)(=O)c2cccc3cccnc23)cc1 | 1 to 100% | 101 to 500% | 101 to 500% | 101 to 500% | 
CC1CN(CC2CCCCC2)CC(C)N1C(=O)c1ccc(NS(=O)(=O)c2cccc3cccnc23)cc1 (centres unmarked) | 101 to 500% | 101 to 500% | 101 to 500% | 101 to 500% | 

Further lines, with some results ahead:

activation at 1 µM (PKR T384W) | activation at 1 µM (PKR wt) | activation at 1 µM (PKR R510Q) | activation at 1 µM (PKR R532W) | SMILES | Act, % 532W (PKR R532W; % activation at 1 μM)
101 to 500% | 1 to 100% | 101 to 500% | 1 to 100% | CC(c1ccc(Cl)c(F)c1)N1CCN(C(=O)c2ccc(NS(=O)(=O)c3cccc4cccnc34)cc2)[C@H](C)C1 (some centres unmarked) | 
1 to 100% | 101 to 500% | 101 to 500% | 101 to 500% | C[C@H]1CN(Cc2ccc(Cl)c(F)c2)CCN1C(=O)c1ccc(NS(=O)(=O)c2cccc3cccnc23)cc1 | 
1 to 100% | 1 to 100% | 1 to 100% |  | C[C@H]1CN(Cc2ccc(F)c(F)c2F)CCN1C(=O)c1ccc(NS(=O)(=O)c2cccc3cccnc23)cc1 [drawing 66] | A (a % activation at 1 μM of from 1 to 100)
1 to 100% | 1 to 100% | 1 to 100% | 1 to 100% | C[C@@H]1CN(Cc2cc(F)c(F)cc2F)CCN1C(=O)c1ccc(NS(=O)(=O)c2cccc3cccnc23)cc1 | 
1 to 100% | 1 to 100% | 1 to 100% | 1 to 100% | C[C@@H]1CN(Cc2cc(F)cc(F)c2)CCN1C(=O)c1ccc(NS(=O)(=O)c2cccc3cccnc23)cc1 | 
101 to 500% | 101 to 500% | 1 to 100% | 1 to 100% | COc1cccc(CN2CCN(C(=O)c3ccc(NS(=O)(=O)c4cccc5cccnc45)cc3)[C@@H](C)C2)c1OC | 
101 to 500% | 101 to 500% | 101 to 500% | 101 to 500% | C[C@@H]1CN(Cc2ccccc2F)CCN1C(=O)c1ccc(NS(=O)(=O)c2cccc3cccnc23)cc1 | 
101 to 500% | 1 to 100% | 1 to 100% | 101 to 500% | C[C@H]1CN(Cc2c(F)cc(F)cc2F)CCN1C(=O)c1ccc(NS(=O)(=O)c2cccc3cccnc23)cc1 | 
101 to 500% | 101 to 500% | 1 to 100% | 101 to 500% | CC(c1c(F)ccc(F)c1F)N1CCN(C(=O)c2ccc(NS(=O)(=O)c3cccc4cccnc34)cc2)[C@H](C)C1 (some centres unmarked) | 
101 to 500% | 101 to 500% | 1 to 100% | 101 to 500% | CC(c1cc(F)c(F)cc1F)N1CCN(C(=O)c2ccc(NS(=O)(=O)c3cccc4cccnc34)cc2)[C@@H](C)C1 (some centres unmarked) | 
101 to 500% | 101 to 500% | 1 to 100% | 101 to 500% | C[C@@H]1CN(Cc2ccc(F)cc2)CCN1C(=O)c1ccc(NS(=O)(=O)c2cccc3cccnc23)cc1 | 
101 to 500% | 101 to 500% | 1 to 100% | 101 to 500% | C[C@H]1CN(Cc2ccccc2F)CCN1C(=O)c1ccc(NS(=O)(=O)c2cccc3cccnc23)cc1 | 
1 to 100% | 1 to 100% | 101 to 500% | 1 to 100% | CC(c1c(F)cccc1F)N1CCN(C(=O)c2ccc(NS(=O)(=O)c3cccc4cccnc34)cc2)[C@H](C)C1 (some centres unmarked) | 
1 to 100% | 101 to 500% | 1 to 100% | 101 to 500% | C[C@@H]1CN(Cc2ccc(Cl)c(F)c2)CCN1C(=O)c1ccc(NS(=O)(=O)c2cccc3cccnc23)cc1 | 
101 to 500% | 1 to 100% | 1 to 100% | 1 to 100% | CC(C)[C@H]1CN(Cc2ccc(F)cc2)CCN1C(=O)c1ccc(NS(=O)(=O)c2cccc3cccnc23)cc1 | 
101 to 500% | 101 to 500% | 1 to 100% | 101 to 500% | CC(c1ccc(F)cc1Cl)N1CCN(C(=O)c2ccc(NS(=O)(=O)c3cccc4cccnc34)cc2)[C@H](C)C1 (some centres unmarked) | 
101 to 500% | 101 to 500% | 101 to 500% | 101 to 500% | CC(c1ccc(F)cc1)N1CCN(C(=O)c2ccc(NS(=O)(=O)c3cccc4cccnc34)cc2)[C@@H](C)C1 (some centres unmarked) | 
1 to 100% | 101 to 500% | 101 to 500% | 101 to 500% | C[C@@H]1CN(CC2CCCO2)CCN1C(=O)c1ccc(NS(=O)(=O)c2cccc3cccnc23)cc1 (some centres unmarked) | 
1 to 100% | 1 to 100% | 1 to 100% | 101 to 500% | CC1CN(Cc2ccc(F)cc2)CC(C)N1C(=O)c1ccc(NS(=O)(=O)c2cccc3cccnc23)cc1 (centres unmarked) | 
